Test results taken from patent US10882837B2, “Amide compounds and use thereof” (ALPHALA CO., LTD., priority 2017, dated 2021).

Columns and labels:
GCGR = GCGR (Homo sapiens, UniProt P47871); experiment: I125-glucagon binding assay (competition, GCGR membrane fractions); design: expressed in transfected cells; host or cells: CHO-K1; conditions: for IC50: competition with I125-glucagon 0.0625 nM, membrane fractions from GCGR overexpressed CHO-K1 cells
Method in brief: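 Membranes from CHO-K1 cells overexpressing GCGR (7.5 µg/well) were preincubated 5 min with serially diluted compound in 50 mM Tris pH 7.4, 0.5% BSA. I125-glucagon was then added at 0.0625 nM final and incubated 30 min at 25 °C. After filtration, bound radioactivity was counted and IC50 derived by non-linear regression.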

glucagon receptor (GCGR) = molecular target: T1, glucagon receptor (GCGR) (Homo sapiens, UniProt P47871); experiment: Glucagon cAMP inhibition assay (Cisbio cAMP Dynamic 2 HTRF); assay type: cell-based; conditions: GCGR overexpressed CHO-K1 cells or human primary hepatocytes (not specified); glucagon at EC50
T1 construct: expressed in transfected cells; host or cells: CHO-K1
T1 sequence (P47871 26-477, species assumed): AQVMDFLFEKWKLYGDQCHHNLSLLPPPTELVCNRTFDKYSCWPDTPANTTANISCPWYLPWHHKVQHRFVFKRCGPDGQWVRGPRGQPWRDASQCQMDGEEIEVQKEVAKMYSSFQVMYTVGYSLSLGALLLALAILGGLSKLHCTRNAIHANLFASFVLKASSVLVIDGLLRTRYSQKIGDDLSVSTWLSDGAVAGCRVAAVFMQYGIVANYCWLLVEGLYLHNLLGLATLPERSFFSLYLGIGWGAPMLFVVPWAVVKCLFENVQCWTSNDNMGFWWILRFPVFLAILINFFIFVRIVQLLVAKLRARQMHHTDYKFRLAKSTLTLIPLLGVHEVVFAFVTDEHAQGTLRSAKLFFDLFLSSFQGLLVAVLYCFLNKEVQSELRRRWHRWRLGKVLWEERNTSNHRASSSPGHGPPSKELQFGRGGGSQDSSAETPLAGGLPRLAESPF
Method in brief: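 GCGR-overexpressing CHO-K1 cells or human primary hepatocytes in HBSS with 0.1% BSA and 800 nM IBMX, pre-incubated 30 min with compound (1% DMSO final), then stimulated 30 min at room temperature with glucagon at its EC50. cAMP measured by HTRF after 60 min lysis; IC50 from non-linear regression.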

GCGR, sequence (P47871 26-477, species assumed): as above

SMILES | IC50 (GCGR) | IC50 (glucagon receptor (GCGR)) | inhibition at 30 µM (GCGR; compound at 30 μM, read-out: percentage of inhibition (number in parenthesis in IC50 binding column))
CC(C)[C@H](Nc1ccc(C(=O)NCCC(=O)O)cc1)c1ccc(-c2noc(-c3ccccc3)n2)cc1 [Compound 2-28, (S)-3-(4-((2-methyl-1-(4-(5-phenyl-1,2,4-oxadiazol-3-yl)phenyl)propyl)amino)benzamido)propanoic acid] | 0.029 µM | 0.295 µM | 
CCCCC(Nc1ccc(C(=O)NCCC(=O)OCC)cc1)c1ccc(-c2nnc(C(C)(C)C)o2)cc1 (stereo not shown) [Compound 1-19, Ethyl 3-(4-((1-(4-(5-(tert-butyl)-1,3,4-oxadiazol-2-yl)phenyl)pentyl)amino)benzamido)propanoate] | 4.41 µM | 0.203 µM | 
CCCC[C@@H](Nc1ccc(C(=O)NCCC(=O)O)cc1)c1ccc(-c2noc(-c3ccccc3)n2)cc1 [Compound 2-36, (R)-3-(4-((1-(4-(5-phenyl-1,2,4-oxadiazol-3-yl)phenyl)pentyl)amino)benzamido)propanoic acid] | 0.199 µM | 0.338 µM | 
CCOC(=O)CCNC(=O)c1ccc(N[C@H](c2ccc(-c3nc4ccccc4o3)cc2)C2CCCC2)cc1 [Compound 4-23, ethyl (S)-3-(4-(((4-(benzo[d]oxazol-2-yl)phenyl)(cyclopentyl)methyl)amino)benzamido)propanoate] | 0.308 µM | 0.065 µM | 
CCC(C)C(Nc1ccc(C(=O)NCCC(=O)O)cc1)c1ccc(-c2nnc(C(F)(F)F)o2)cc1 (stereo not shown) [Compound 1-32] | 0.885 µM | 3.48 µM | 
CCOC(=O)CCNC(=O)c1ccc(C(Nc2ccc(-c3nnc(-c4ccc(F)cc4)o3)cc2)C(C)CC)cc1 (stereo not shown) [Compound 3-7, ethyl 3-(4-(1-((4-(5-(4-fluorophenyl)-1,3,4-oxadiazol-2-yl)phenyl)amino)-2-methylbutyl)benzamido)propanoate] | 0.246 µM | 0.159 µM | 
CC(C)C[C@@H](Nc1ccc(C(=O)NCCC(=O)O)cc1)c1ccc(-c2nc3ccccc3o2)cc1 [Compound 4-14, (R)-3-(4-((1-(4-(benzo[d]oxazol-2-yl)phenyl)-3-methylbutyl)amino)benzamido)propanoic acid] | 0.112 µM | 0.917 µM | 
CC(C)C(Nc1ccc(-c2noc(-c3ccccc3)n2)cc1)c1ccc(C(=O)NCCC(=O)O)cc1 (stereo not shown) [Compound 3-11, 3-(4-(2-methyl-1-((4-(5-phenyl-1,2,4-oxadiazol-3-yl)phenyl)amino)propyl)benzamido)propanoic acid] | 0.318 µM | 0.717 µM | 
CCC(C)C(Nc1ccc(-c2nnc(-c3ccccc3)o2)cc1)c1ccc(C(=O)NCCC(=O)O)cc1 (stereo not shown) [Compound 3-6, 3-(4-(2-methyl-1-((4-(5-phenyl-1,3,4-oxadiazol-2-yl)phenyl)amino)butyl)benzamido)propanoic acid] | 0.058 µM | 0.65 µM | 
CC(C)C[C@@H](Nc1ccc(C(=O)NCCC(=O)O)cc1)c1ccc(-c2nnc(-c3ccccc3)o2)cc1 [Compound 1-62, (R)-3-(4-((3-methyl-1-(4-(5-phenyl-1,3,4-oxadiazol-2-yl)phenyl)butyl)amino)benzamido)propanoic acid] | 0.876 µM | 2.05 µM | 
CCOC(=O)CCNC(=O)c1ccc(N[C@H](c2ccc(-c3noc(-c4ccccc4)n3)cc2)C(C)C)cc1 [Compound 2-27, ethyl (S)-3-(4-((2-methyl-1-(4-(5-phenyl-1,2,4-oxadiazol-3-yl)phenyl)propyl)amino)benzamido)propanoate] | 0.634 µM | 0.061 µM | 
CCCCC(Nc1ccc(C(=O)NCCC(=O)O)cc1)c1ccc(-c2noc(C(C)(C)C)n2)cc1 (stereo not shown) [Compound 2-4, 3-(4-((1-(4-(5-(tert-butyl)-1,2,4-oxadiazol-3-yl)phenyl)pentyl)amino)benzamido)propanoic acid] | 0.164 µM | 0.329 µM | 
CCCC[C@H](Nc1ccc(C(=O)NCCC(=O)O)cc1)c1ccc(-c2noc(C(F)(F)F)n2)cc1 [Compound 2-47, (S)-3-(4-((1-(4-(5-(trifluoromethyl)-1,2,4-oxadiazol-3-yl)phenyl)pentyl)amino)benzamido)propanoic acid] | 0.254 µM | 0.428 µM | 
CCOC(=O)CCNC(=O)c1ccc(N[C@H](c2ccc(-c3nnc(-c4ccccc4)o3)cc2)C(C)CC)cc1 (stereo partly drawn) [Compound 1-47, ethyl 3-(4-(((1S)-2-methyl-1-(4-(5-phenyl-1,3,4-oxadiazol-2-yl)phenyl)butyl)amino)benzamido)propanoate] | 0.226 µM | 0.037 µM | 28%
CCCC[C@H](Nc1ccc(C(=O)NCCC(=O)O)cc1)c1ccc(-c2nnc(-c3ccccn3)o2)cc1 [Compound 1-45, (S)-3-(4-((1-(4-(5-(pyridin-2-yl)-1,3,4-oxadiazol-2yl)phenyl)pentyl)amino)benzamido)propanoic acid] | 0.339 µM | 2.54 µM | 
CC(C)CC(Nc1ccc(C(=O)NCCC(=O)O)cc1)c1ccc(-c2nnc(C(F)(F)F)o2)cc1 (stereo not shown) [Compound 1-9, 3-(4-((3-Methyl-1-(4-(5-(trifluoromethyl)-1,3,4-oxadiazol-2-yl)phenyl)butyl)amino)benzamido)propanoic acid] | 0.956 µM | 17.1 µM | 
CCOC(=O)CCNC(=O)c1ccc(N[C@H](CC(C)C)c2ccc(-c3nc4ccccc4o3)cc2)cc1 [Compound 4-13, ethyl (R)-3-(4-((1-(4-(benzo[d]oxazol-2-yl)phenyl)-3-methylbutyl)amino)benzamido)propanoate] | 31.6 µM | 0.361 µM | 
CC(C)C[C@H](Nc1ccc(C(=O)NCCC(=O)O)cc1)c1ccc(-c2nc3ccccc3o2)cc1 [Compound 4-18] | 0.083 µM | 1.75 µM | 
CC(C)C(Nc1ccc(C(=O)NCCC(=O)O)cc1)c1ccc(-c2noc(C(C)(C)C)n2)cc1 (stereo not shown) [Compound 2-2, 3-(4-((1-(4-(5-(tert-butyl)-1,2,4-oxadiazol-3-yl)phenyl)-2-methylpropyl)amino)benzamido)propanoic acid] | 0.171 µM | 0.878 µM | 
CCCC[C@H](Nc1ccc(C(=O)NCCC(=O)O)cc1)c1ccc(-c2nc(-c3ccccc3)no2)cc1 [Compound 5-8, (S)-3-(4-((1-(4-(3-phenyl-1,2,4-oxadiazol-5-yl)phenyl)pentyl)amino)benzamido)propanoic acid] | 0.014 µM | 0.202 µM | 
CCOC(=O)CCNC(=O)c1ccc(N[C@@H](c2ccc(-c3noc(-c4ccccc4)n3)cc2)C(C)C)cc1 [Compound 2-22, ethyl (R)-3-(4-((2-methyl-1-(4-(5-phenyl-1,2,4-oxadiazol-3-yl)phenyl)propyl)amino)benzamido)propanoate] | 0.673 µM | 0.245 µM | 
CCOC(=O)CCNC(=O)c1ccc(N[C@@H](c2ccc(-c3nc4ccccc4o3)cc2)C2CCCC2)cc1 [Compound 4-11, ethyl (R)-3-(4-(((4-(benzo[d]oxazol-2-yl)phenyl)(cyclopentyl)methyl)amino)benzamido)propanoate] | 0.755 µM | 0.237 µM | 
CCCC[C@H](Nc1ccc(C(=O)NCCC(=O)O)cc1)c1ccc(-c2nnc(C(F)(F)F)o2)cc1 [Compound 1-53, (S)-3-(4-((1-(4-(5-(trifluoromethyl)-1,3,4-oxadiazol-2-yl)phenyl)pentyl)amino)benzamido)propanoic acid] | 0.351 µM | 1.87 µM | 
CC(C)CC(Nc1ccc(C(=O)NCCC(=O)O)cc1)c1ccc(-c2nnc(-c3ccccc3)o2)cc1 (stereo not shown) [Compound 1-5, 3-(4-((3-Methyl-1-(4-(5-phenyl-1,3,4-oxadiazol-2-yl)phenyl)butyl)amino)benzamido)propanoic acid] | 0.175 µM | 4.13 µM | 
CC(C)CC(Nc1ccc(C(=O)NCCC(=O)O)cc1)c1ccc(-c2noc(-c3cccs3)n2)cc1 (stereo not shown) [Compound 2-14, 3-(4-((3-methyl-1-(4-(5-(thiophen-2-yl)-1,2,4-oxadiazol-3-yl)phenyl)butyl)amino)benzamido)propanoic acid] | 0.274 µM | 1.39 µM | 
CC(C)[C@H](Nc1ccc(C(=O)NCCC(=O)O)cc1)c1ccc(-c2nnc(-c3ccccc3)o2)cc1 [Compound 1-41, (S)-3-(4-(2-methyl-1-(4-(5-phenyl-1,3,4-oxadiazol-2-yl)phenyl)propylamino)benzamido)propanoic acid] | 0.107 µM | 2.71 µM | 
CCOC(=O)CCNC(=O)c1ccc(N[C@@H](c2ccc(-c3nc4ccccc4o3)cc2)C(C)C)cc1 [Compound 4-6, ethyl (R)-3-(4-((1-(4-(benzo[d]oxazol-2-yl)phenyl)-2-methylpropyl)amino)benzamido)propanoate] | > 3 µM | 0.124 µM | 
CCCC[C@H](Nc1ccc(C(=O)NCCC(=O)OCC)cc1)c1ccc(-c2noc(C(F)(F)F)n2)cc1 [Compound 2-45, ethyl (S)-3-(4-((1-(4-(5-(trifluoromethyl)-1,2,4-oxadiazol-3-yl)phenyl)pentyl)amino)benzamido)propanoate] | > 30 µM | 0.118 µM | 
CCOC(=O)CCNC(=O)c1ccc(NC(CC(C)C)c2ccc(-c3nnc(-c4ccc(F)cc4)o3)cc2)cc1 (stereo not shown) [Compound 1-27, ethyl 3-(4-((1-(4-(5-(4-fluorophenyl)-1,3,4-oxadiazol-2-yl)phenyl)-3-methylbutyl)amino)benzamido)propanoate] | > 30 µM | 0.118 µM | 
CCOC(=O)CCNC(=O)c1ccc(N[C@H](c2ccc(-c3nc(-c4ccccc4)no3)cc2)C(C)CC)cc1 (stereo partly drawn) [Compound 5-5, ethyl 3-(4-(((1S)-2-methyl-1-(4-(3-phenyl-1,2,4-oxadiazol-5-yl)phenyl)butyl)amino)benzamido)propanoate] | 0.876 µM | 0.046 µM | 
